Reference: patent US20020127539A1, “Assays for identifying receptors having alterations in signaling” (priority 2000, published 2002)

What was measured:
rat mu opioid receptor = test: CRE-Luc luciferase reporter assay with forskolin stimulation; format: cell-based; details: FIG. 3, CRE-Luc
Excerpt: Similarly, a constitutively active rat mu opioid receptor was identified using a reporter construct sensitive to Gαi coupling (see FIG. 3). The response element employed in this assay was the cAMP-response element (CRE), which is sensitive to Gαi mediated changes in intracellular levels of cAMP. Signaling through the rat mu opioid receptor via Gαi inhibits adenylate cyclase, causing a decrease in intracellular cAMP. Therefore, an increase in rat mu opioid receptor signaling induces a decrease in CRE mediated reporter activity.
Prior to the present invention, Gαi-mediated decreases in intracellular cAMP were measured by (1) stimulating cells with forskolin, which causes receptor-independent activation of adenylate cyclase and generates an intracellular pool of cAMP; (2) stimulating the cells with ligand; and (3) measuring the ligand-induced, receptor-dependent Gαi-mediated decrease in the intracellular cAMP pool (e.g., using a radioimmunoassay (e.g., New England Nuclear, Boston, Mass.)). […] The basal (and ligand-induced) level of receptor activity was then measured using a standard luciferase assay (see FIG. 3). Coexpression of the receptor of interest with a luciferase reporter gene construct allows one to measure light emission as a readout for basal signaling.

MC-4 receptor = target: T1, MC-4 receptor (Homo sapiens, UniProt P32245, D146M); test: SMS-Luc luciferase reporter assay in HEK293 cells; format: cell-based; details: FIG. 10
T1 construct: expressed in transfected cells; host or cells: HEK293
Experimental: Briefly, HEK293 cells were cotransfected, as described above, with an expression vector encoding either the wild-type MC-4 receptor or the Asp146Met mutant MC-4 receptor and the reporter construct, SMS-Luc. As a negative control, cells were transfected with SMS-Luc and pcDNA1. Basal and ligand (αMHS) induced activity of the negative control, the wild-type MC-4 receptor, and the Asp146Met mutant MC-4 receptor were measured using the luciferase assay described above.

T1 sequence (P32245 whole entry D146M): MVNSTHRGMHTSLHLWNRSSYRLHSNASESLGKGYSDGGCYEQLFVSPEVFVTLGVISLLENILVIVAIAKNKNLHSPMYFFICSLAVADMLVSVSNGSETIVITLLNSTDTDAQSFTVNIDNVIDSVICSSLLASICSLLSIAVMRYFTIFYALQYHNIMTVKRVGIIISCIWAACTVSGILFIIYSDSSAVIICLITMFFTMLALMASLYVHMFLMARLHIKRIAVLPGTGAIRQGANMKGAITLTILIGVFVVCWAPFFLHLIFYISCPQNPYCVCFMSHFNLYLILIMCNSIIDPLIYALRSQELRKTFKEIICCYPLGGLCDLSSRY

Row | basal level activity compared to wild-type MC-4 receptor (MC-4 receptor) | Compound | effect of agonist stimulation on forskolin induced activity (rat mu opioid receptor)
1 | – | C[C@@H](NC(=O)[C@@H](N)Cc1ccc(O)cc1)C(=O)NCC(=O)N(C)[C@@H](Cc1ccccc1)C(=O)NCCO [DAMGO, [D-Ala^2-MePhe^4, Gly-ol^5]enkephalin], reference compound] | decrease in forskolin induced activity
2 | higher basal level activity | Asp146Met mutant MC-4 receptor: melanocortin-4 receptor with Asp146Met substitution in the DRY motif | –
